We go through one substance from patent US9821080B2 (priority 2011, dated 2017).

For experiment [1], the system named is H1N1. More on the design: species or system influenza virus A/Puerto Rico/8/1934 (H1N1).
For experiment [2], the system named is ST cells. In kind it is cell-based, swine.

For the substance fluorescein isothiocyanate [FITC], in experiment [1], the “total fluorescence relative to H1N1 modified with 25 μg/ml FSL-FLRO4” value is “about 9 times”. Further, in experiment [2], the “fewer labelled virions infecting cells compared with 25 μg/ml FSL-FLRO4 modified H1N1” value was 9 times.
